The values below are quoted from earlier work in EP0615447B1, “SLOW-RELEASE FLURBIPROFEN-CONTAINING MEDICAMENT AND ITS USE” (ALFATEC-PHARMA GmbH, priority 1991, dated 1993).

For data set [1] the following is noted: aqueous medium; compared with the racemate.
For data set [2] the following is noted: in vivo.
The conditions of data set [3]: water.

Take `CC(C(=O)O)c1ccc(-c2ccccc2)c(F)c1` (racemic) [Pseudoracemat]: the Auflösungsgeschwindigkeit entry in data set [1] is reported as “wesentlich höher”.

For the molecule `CC(C(=O)O)c1ccc(-c2ccccc2)c(F)c1` (racemic) [Flurbiprofen, 2-(2-Fluor-4-biphenylyl)propionsäure], the pKA was 4,16. In addition, the Plasmahalbwertszeit in data set [2] is on record as 3,9 h. In addition, the “Löslichkeit in Wasser” value in data set [3] is 32,5 mg/l.
